biological target: T1, CDK2 (Homo sapiens, UniProt P24941); assay: CDK2 in vitro kinase assay (cyclin A or E-dependent), 33P-ATP SPA; format: biochemical; settings: recombinant cyclin-CDK2 complex (cyclin A or E, not specified); biotinylated Histone H1 peptide substrate; 1 hour at room temperature; read-out: CDK 2 IC50
T1 construct: The expressed protein is approximately 34 kDa in size; made in house; host or cells: SF9 insect cells (recombinant baculovirus, pFASTBAC)

Row | Compound | IC50
1 | CCc1cnn2c(NCc3cncnc3)nc(N3CCCC[C@H]3CCO)nc12 | 560 pM
2 | CCc1cnn2c(NCc3ccn(CC)c(=O)c3)nc(N3CCCC[C@H]3CCO)nc12 | 520 pM
3 | Cn1cc(CNc2nc(N3CCCC[C@H]3CCO)nc3c(C4CC4)cnn23)ccc1=O | 3100 pM
4 | CCc1cnn2c(Nc3ccc(S(C)(=O)=O)cc3)nc(N3CCCC[C@H]3CCO)nc12 | 106000 pM
5 | CCc1cnn2c(NCc3ccnnc3)nc(N3CCCC[C@H]3CCO)nc12 | 1200 pM
6 | CCc1cnn2c(NCc3cccnc3)nc(N3CCCC[C@H]3CCO)nc12 | 880 pM
7 | CCc1cnn2c(NCc3ccc(=O)n(C)c3)nc(N3CCCC[C@H]3CCO)nc12 | 480 pM

Reference: US7354921B2, “Pyrazolotriazines as kinase inhibitors” (Schering Corporation, priority 2004, dated 2008)
